Measured values reported in patent publication US9776963B2, “Small molecule CD4 mimetics and uses thereof” (priority 2008, dated 2017).
“And” between values parts separate entries of the source, which are not always exact repeats. Equal entries are not always repeated. Where two headings read alike, the source gives them in different places.

What was measured:
[1] = biological target: T1, w.t. HIV-1 YU2 gp120 glycoprotein (Human immunodeficiency virus type 1 group M subtype B, UniProt P35961); assay: biochemical; format: binding; details: for Kd: w.t. gp120, ITC, 25° C.
T1 construct: (His)6 (C); made in house; host or cells: 293F cells

[2] = biological target: T2, HIV-1 YU2 gp120 glycoprotein D368A (Human immunodeficiency virus type 1 group M subtype B, UniProt P35961, D363A); assay: biochemical; format: binding
T2 construct: (His)6 (C); made in house; host or cells: 293F cells

[3] = biological target: T3, HIV-1 YU2 gp120 glycoprotein S375A (Human immunodeficiency virus type 1 group M subtype B, UniProt P35961, S370A); assay: biochemical; format: binding
T3 construct: (His)6 (C); made in house; host or cells: 293F cells

[4] = biological target: T4, HIV-1 YU2 gp120 glycoprotein D368A/S375A (Human immunodeficiency virus type 1 group M subtype B, UniProt P35961, D363A/S370A); assay: biochemical; format: binding
T4 construct: (His)6 (C); made in house; host or cells: 293F cells

[5] = biological target: T5, HIV-1 YU2 gp120 glycoprotein V430A (Human immunodeficiency virus type 1 group M subtype B, UniProt P35961, V417A); assay: biochemical; format: binding
T5 construct: (His)6 (C); made in house; host or cells: 293F cells

[6] = tested on: recombinant HIV with the w.t. HIVYU2 envelope glycoproteins; assay: microbe, parasite or virus in culture; format: cell-based; details: for IC50: w.t. YU2 envelope glycoproteins; for inhibition of HIV infection of cells expressing CD4 and CCR5 (in words): specificity versus A-MLV control
[7] = tested on: recombinant HIV with the wild-type HIVYU2 envelope glycoproteins; format: cell-based; details: w.t. YU2 envelope
[8] = tested on: viruses with the S375W envelope glycoproteins; format: cell-based; details: Cf2Th-CCR5 cells
[9] = tested on: D368A mutant viruses; format: cell-based; details: D368A envelope, CD4-CCR5+ target cells
[10] = tested on: viruses with gp120 Glu 429 replaced with lysine; format: cell-based
[11] = tested on: viruses with gp120 Glu 429 replaced with alanine; format: cell-based
[12] = tested on: viruses with HXBc2 or KB9 Env gps
Source text: The envelope glycoproteins were derived from CCR5-using (R5) primary HIV isolates (YU2 and ADA), dual-tropic (R5×4) primary isolates (89.6 and KB9) and, as a control, the amphotropic murine leukemia virus (A-MLV).

[13] = tested on: viruses with the S375A change; format: cell-based; details: S375A envelope, compared with w.t.
[14] = biological target: T6, HXBc2 gp120 (Human immunodeficiency virus type 1 group M subtype B, UniProt P04578); assay: Compound binding assay with [3H]-NBD-556, HXBc2 gp120; parameters: species or system HIV
T6 construct: (His)6 (C); made in house; host or cells: 293F cells

[15] = NBD-556 compared with NBD-557
[16] = Human immunodeficiency virus 1, Cf2Th-CD4/CCR5, Cf2Th-CD4/CCR5 cells

| Molecule | gp120 binding / affinity (in words) [1] | inhibition of HIV infection of cells expressing CD4 and CCR5 (in words) [6] | enhancement of infection (in words) [8] | enhancement of infectivity (in words) [9] | activation of infection (in words) [10] | virus activation (in words) [11] | further results |
| --- | --- | --- | --- | --- | --- | --- | --- |
| CC1(C)CC(NC(=O)C(=O)Nc2ccc(Cl)c(F)c2)CC(C)(C)N1 [Compound II, N1-(4-Chloro-3-fluorophenyl)-N2-(2,2,6,6-tetramethylpiperidin-4-yl)oxalamide] | highest affinity for gp120 | specifically inhibited HIVYU2 infection | did not activate the entry | enhanced | eliminated the activation of infection | significantly diminished | gp120 binding / affinity (in words) ([1]; listed as compound II): better gp120 binding than NBD-556 or NBD-557; Kd [1]: 800 nM; Kd [2]: 720 nM; Kd [3]: 140 nM; Kd [4]: 83 nM; Kd [5]: 1000 nM; IC50 ([6]; Cf2Th-CD4/CCR5 cells): 54000 nM; IC50 [6, 16]: 90000 nM; enhancement of HIV infection of CD4-CCR5+ cells (in words) [7]: most potent stimulation of HIV infection; enhancement of HIV infection of CD4-CCR5+ cells (in words) ([7]; listed as compound II): only compound II activated HIV infection; infection of CD4-CXCR4+ cells (in words) [12]: neither of these Env gps supported infection |
| CN1C(C)(C)CC(NC(=O)C(=O)Nc2ccc(Cl)c(F)c2)CC1(C)C [Compound III] | increases affinity for gp120 | lowers the IC50, while maintaining specificity for HIV-1 |  |  |  |  | Kd [1]: 330 nM; IC50 [6, 16]: 75000 nM |
| CC1(C)CC(NC(=O)C(=O)Nc2ccc(Br)cc2)CC(C)(C)N1 [NBD-557] | comparably to NBD-556 |  | did not activate the entry | not enhanced | eliminated the activation of infection | significantly diminished | enhancement of HIV infection of CD4-CCR5+ cells (in words) [7]: comparably to NBD-556 |
| CC1(C)CC(NC(=O)C(=O)Nc2ccc(Cl)c(Cl)c2)CC(C)(C)N1 [V] | better gp120 binding than NBD-556 or NBD-557 |  |  |  |  |  |  |
| COC(=O)CCCn1cc(CN2C(C)(C)CC(NC(=O)C(=O)Nc3ccc(Cl)c(F)c3)CC2(C)C)nn1 [XVIII] |  | efficient and specific inhibition of HIV-1 |  |  |  |  |  |
| CC1(C)CC(NC(=O)C(=O)Nc2ccc(Cl)c(F)c2)CC(C)(C)N1CCCO [XVII] |  | efficient and specific inhibition of HIV-1 |  |  |  |  |  |
| CC1(C)CC(NC(=O)C(=O)Nc2ccc(Cl)c(F)c2)CC(C)(C)N1Cc1cn(CCCCCO)nn1 [XVI] |  | efficient and specific inhibition of HIV-1 |  |  |  |  |  |
| NBD-556 |  |  | not enhanced | enhanced | eliminated the activation of infection | less disruptive | IC50 ([6]; Cf2Th-CD4/CCR5 cells): > 100000 nM and 100000 nM; enhancement of infection (in words) [13]: greater enhancement; direct binding of 3H-labeled compound (in words) [14]: only moderately; solubility (in words) [15]: better solubility; infection of CD4-CXCR4+ cells (in words) [12]: did not enhance the entry |
